US9181234B2, “Antibacterial compounds” (priority 2010, dated 2015)
In brackets after ≈: the same amount, converted by molar mass.

Legend:
physchem = conditions: for solubility at 24 h: kinetic from dmso stock
How it was run: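 DMSO doubling dilutions were diluted twenty-fold into 100 mM citrate (pH 4), PBS (pH 7.4) or carbonate-bicarbonate (pH 9). After 24 h equilibration at room temperature, absorbance was read at 620 nm. The reported value is the highest concentration without measurable precipitate.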

[1] = tested on: Staphylococcus aureus (Isolate ID ATCC 29213); experiment: Antibacterial activity, MIC, S. aureus; format: cell-based; conditions: broth microdilution or agar dilution; for MIC: Staphylococcus aureus, ATCC29213, Gram positive strain
How it was run: (§1)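 CLSI-guided dilution susceptibility testing (broth or agar) gave the MIC for each strain.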

[2] = tested on: Enterococcus faecalis (Isolate ID ATCC 29212); experiment: Antibacterial activity, MIC, E. faecalis; format: cell-based; conditions: Gram positive strain, broth microdilution or agar dilution; for MIC: Enterococcus faecalis, ATCC29212
How it was run: as §1

[3] = tested on: Streptococcus pyogenes (Isolate ID ATCC 51339); experiment: Antibacterial activity, MIC, S. pyogenes; format: cell-based; conditions: broth microdilution or agar dilution; for MIC: Streptococcus pyogenes, ATCC51339, Gram positive strain
How it was run: as §1

[4] = tested on: Haemophilus influenzae (Isolate ID ATCC 49247); experiment: Antibacterial activity, MIC, H. influenzae; format: cell-based; conditions: Gram negative strain, broth microdilution or agar dilution; for MIC: Haemophilus influenzae, ATCC49247
How it was run: as §1

[5] = pH 7.4, aqueous buffer, Solubility (pH 7.4)
[6] = pH 7.4, aqueous buffer, Solubility Range
[7] = pH 7.4, aqueous buffer, Max Solubility
[8] = pH 7.4, aqueous buffer, Solubility Range (maximum solubility)

| Structure (SMILES) | solubility at 24 h (physchem; [5]) [µg/mL] | solubility at 24 h (physchem; [6]) [µg/mL] | MIC [1] [µg/mL] | MIC [2] [µg/mL] | MIC [3] [µg/mL] | MIC [4] [µg/mL] | solubility at 24 h (physchem; [7]) [µg/mL] | solubility at 24 h (physchem; [8]) [µg/mL] | Max Solubility (physchem; pH 7.4) | Solubility (pH 7.4) (physchem; pH 7.4) | Antibacterial Activity (MIC) S. aureus (ATCC 29213) ([1]; Gram positive strain) | Antibacterial Activity (MIC) E. faecalis (ATCC 29212) [2] | Antibacterial Activity (MIC) S. pyogenes (ATCC 51339) ([3]; Gram positive strain) | Antibacterial Activity (MIC) H. influenzae (ATCC 49247) [4] | solubility at 24 h (physchem; pH 9, aqueous buffer, Max Solubility) [µg/mL] | solubility at 24 h (physchem; pH 9, aqueous buffer, Solubility Range (maximum solubility)) [µg/mL] |
| --- | --- | --- | --- | --- | --- | --- | --- | --- | --- | --- | --- | --- | --- | --- | --- | --- |
| CCNC(=O)Nc1nc2cc(-c3cnc(N4CCC(CC)(C(=O)O)CC4)nc3)cc(-c3cc(OC)ccn3)c2s1 [Compound 102] | ≥ 800 | > 800 | ≤ 0.25 | ≤ 0.25 | ≤ 0.25 | 1 to 16 (≈ 1.78 to 28.5 µM) | – | – | – | – | – | – | – | – | – | – |
| CCNC(=O)Nc1nc2cc(-c3cnc(N4CCC(CC)(C(=O)O)CC4)nc3)cc(-c3ccc(C#N)cn3)c2s1 [Compound 105] | ≥ 800 | > 800 | ≤ 0.25 | ≤ 0.25 | ≤ 0.25 | 1 to 16 (≈ 1.8 to 28.7 µM) | ≥ 800 | > 800 | – | – | – | – | – | – | – | – |
| CCNC(=O)Nc1nc2cc(-c3cnc(N4CCC(CC)(C(=O)OCC)CC4)nc3)cc(Br)c2s1 [Compound 107] | – | – | – | – | – | – | – | – | ≧800 μg/mL | ≧800 μg/mL | A (“A” activity ≦0.25 μg/mL) | A (“A” activity ≦0.25 μg/mL) | B (“B” activity >0.25 μg/mL-1.0 μg/mL) | D (“D” activity >16 μg/mL) | – | – |
| CCNC(=O)Nc1nc2cc(-c3cnc(N4CCC(CC)(C(=O)O)CC4)cn3)cc(-c3ccccn3)c2s1 [Compound 108] | ≥ 800 | > 800 | ≤ 0.25 | ≤ 0.25 | ≤ 0.25 | 1 to 16 (≈ 1.88 to 30.1 µM) | ≥ 800 | > 800 | – | – | – | – | – | – | – | – |
| CCNC(=O)Nc1nc2cc(-c3cnc(N4CCC(CC)(C(=O)O)CC4)nc3)cc(-c3nccc(OC)n3)c2s1 [Compound 109] | ≥ 800 | > 800 | ≤ 0.25 | ≤ 0.25 | ≤ 0.25 | > 16 | ≥ 800 | > 800 | – | – | – | – | – | – | – | – |
| CCNC(=O)Nc1nc2cc(-c3cnc(N4CCC(CC)(C(=O)O)CC4)cn3)cc(-c3nccc(C)n3)c2s1 [Compound 112] | 25 (≈ 45.7 µM) | 12.5 to 400 (≈ 22.9 to 732 µM) | 0.25 to 1 (≈ 0.457 to 1.83 µM) | ≤ 0.25 | ≤ 0.25 | 1 to 16 (≈ 1.83 to 29.3 µM) | – | – | – | – | – | – | – | – | 100 (≈ 183 µM) | 12.5 to 400 (≈ 22.9 to 732 µM) |
| CCNC(=O)Nc1nc2cc(-c3cnc(N4CCC(CC)(C(=O)O)CC4)nc3)ccc2s1 [Compound 113] | 100 (≈ 220 µM) | 12.5 to 400 (≈ 27.5 to 880 µM) | 1 to 16 (≈ 2.2 to 35.2 µM) | 0.25 to 1 (≈ 0.55 to 2.2 µM) | 1 to 16 (≈ 2.2 to 35.2 µM) | > 16 | 100 (≈ 220 µM) | 12.5 to 400 (≈ 27.5 to 880 µM) | – | – | – | – | – | – | – | – |
| CCNC(=O)Nc1nc2cc(-c3cnc(N4CCC(CC)(C(=O)O)CC4)nc3)cc(N3CCOCC3)c2s1 [Compound 114, 4-ethyl-1-[5-[2-(ethylcarbamoylamino)-7-morpholino-1,3-benzothiazol-5-yl]pyrimidin-2-yl]piperidine-4-carboxylic acid] | 400 (≈ 741 µM) | 400 to 800 (≈ 741 to 1480 µM) | 1 to 16 (≈ 1.85 to 29.6 µM) | ≤ 0.25 | 1 to 16 (≈ 1.85 to 29.6 µM) | > 16 | 400 (≈ 741 µM) | 400 to 800 (≈ 741 to 1480 µM) | – | – | – | – | – | – | – | – |

Other lines, results leading:

| solubility at 24 h (physchem; [5]) [µg/mL] | solubility at 24 h (physchem; [6]) [µg/mL] | MIC [1] [µg/mL] | MIC [2] [µg/mL] | MIC [3] [µg/mL] | MIC [4] [µg/mL] | solubility at 24 h (physchem; [7]) [µg/mL] | solubility at 24 h (physchem; [8]) [µg/mL] | Max Solubility (physchem; pH 7.4) | Solubility (pH 7.4) (physchem; pH 7.4) | Antibacterial Activity (MIC) S. aureus (ATCC 29213) ([1]; Gram positive strain) | Antibacterial Activity (MIC) E. faecalis (ATCC 29212) [2] | Antibacterial Activity (MIC) S. pyogenes (ATCC 51339) ([3]; Gram positive strain) | Antibacterial Activity (MIC) H. influenzae (ATCC 49247) [4] | solubility at 24 h (physchem; pH 9, aqueous buffer, Max Solubility) [µg/mL] | solubility at 24 h (physchem; pH 9, aqueous buffer, Solubility Range (maximum solubility)) [µg/mL] | Structure (SMILES) |
| --- | --- | --- | --- | --- | --- | --- | --- | --- | --- | --- | --- | --- | --- | --- | --- | --- |
| ≥ 800 | > 800 | ≤ 0.25 | ≤ 0.25 | ≤ 0.25 | 1 to 16 (≈ 1.83 to 29.3 µM) | – | – | – | – | – | – | – | – | – | – | CCNC(=O)Nc1nc2cc(-c3cnc(N4CCC(CC)(C(=O)O)CC4)nc3)cc(-c3nccc(C)n3)c2s1 [Compound 101] |
| 12.5 (≈ 22.5 µM) | 12.5 to 400 (≈ 22.5 to 719 µM) | ≤ 0.25 | ≤ 0.25 | ≤ 0.25 | 1 to 16 (≈ 1.8 to 28.7 µM) | – | – | – | – | – | – | – | – | – | – | CCNC(=O)Nc1nc2cc(-c3cnc(N4CCC(CC)(C(=O)O)CC4)nc3)cc(-c3ncccc3C#N)c2s1 [Compound 104] |
| ≥ 800 | > 800 | 0.25 to 1 (≈ 0.437 to 1.75 µM) | ≤ 0.25 | ≤ 0.25 | 1 to 16 (≈ 1.75 to 28 µM) | ≥ 800 | > 800 | – | – | – | – | – | – | – | – | CCNC(=O)Nc1nc2cc(-c3cnc(N4CCC(CC)(C(=O)O)CC4)nc3)cc(-c3ncnc4[nH]ccc34)c2s1 [Compound 106] |
| ≥ 800 | > 800 | ≤ 0.25 | ≤ 0.25 | ≤ 0.25 | 0.25 to 1 (≈ 0.444 to 1.78 µM) | ≥ 800 | > 800 | – | – | – | – | – | – | – | – | CCNC(=O)Nc1nc2cc(-c3cnc(N4CCC(CC)(C(=O)O)CC4)nc3)cc(-c3cc(OC)ncn3)c2s1 [Compound 110] |
